Consider eight compounds from patent US6872727B1, “Polycyclic pyrimidine -2,4(1H,3H)-diones with functionalized alkyl residues at the 1- and/or 3-position(s); methods for their synthesis and pharmaceutical preparation” (Privates Institut fur Biomedizinische Forschung und Beratung, priority 1999, dated 2005).

SMILES strings stand for the structures. pIC50: −log10 of the molar value.

The target of one assay is T1, human matrix metalloproteinase-9 (MMP-9; gelatinase B) (Homo sapiens, UniProt P14780).
T1 construct: from tissue; host or cells: human buffy coat (blood leukocytes)
T1 sequence (P14780 107-707 limits assumed): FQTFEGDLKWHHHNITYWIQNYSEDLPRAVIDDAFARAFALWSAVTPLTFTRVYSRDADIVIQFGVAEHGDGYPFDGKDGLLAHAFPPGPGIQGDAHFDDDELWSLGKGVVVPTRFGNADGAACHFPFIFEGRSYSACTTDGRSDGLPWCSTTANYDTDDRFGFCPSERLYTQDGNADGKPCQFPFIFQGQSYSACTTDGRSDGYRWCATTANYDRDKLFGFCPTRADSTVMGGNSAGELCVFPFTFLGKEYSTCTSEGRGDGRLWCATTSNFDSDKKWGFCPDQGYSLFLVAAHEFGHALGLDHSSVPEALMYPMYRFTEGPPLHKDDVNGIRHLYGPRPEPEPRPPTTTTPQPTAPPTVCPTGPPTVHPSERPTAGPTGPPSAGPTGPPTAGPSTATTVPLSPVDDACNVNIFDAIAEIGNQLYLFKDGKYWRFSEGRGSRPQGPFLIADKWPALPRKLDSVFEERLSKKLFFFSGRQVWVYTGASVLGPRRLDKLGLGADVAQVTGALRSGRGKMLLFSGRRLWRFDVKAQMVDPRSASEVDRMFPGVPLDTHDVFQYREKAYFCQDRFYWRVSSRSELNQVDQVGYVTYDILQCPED
The experiment in a line: Inhibition of human matrix metalloproteinase-9 (gelatinase B). Type of assay: biochemical. Particulars: trypsin-activated native MMP-9 from human buffy coat. The method, then:
Native MMP-9 was reproducibly obtained with reasonable yield and purity from human buffy coat. Buffy coat, to which was added an appropriate volume of 10% (v/v) Triton-X-100 to obtain a final concentration of 0,4% detergent, was shaken on ice for 30 min; then, one volume of twofold-concentrated binding buffer (40 mM Tris-HCl pH 7,5, 10 mM CaCl2, 1 M NaCl, 0,2% (v/v) Triton X-100 was added and the mixture shaken on ice for a further 30 min.
The mixture was then centrifuged for 15 min at 16,000 rpm (30,590×g) in a Kendro SS-34 rotor at 4° C. and the resulting supernatant filtered over glass wool. The filtrate was incubated batchwise with gelatin-agarose equilibrated in binding buffer for 1 h on ice with continuous shaking The MMP-9-bound gelatin-agarose was then loaded into a chromatographic tube and the column washed with at least ten bed volumes of binding buffer, or until no protein was detected by absorbance at 280 nm in the wash buffer. MMP-9 was eluted from the gelatin affinity column by application of two bed volumes of binding buffer containing 5% (v/v) dimethylsulfoxide (DMSO).
The eluate was applied to a gel filtration column of Sephadex G-75 both to exchange buffer and to eliminate small amounts of contaminating MMP-2. The G-75 column was prepared and eluted with Buffer I [20 mM Tris-HCl pH 7,5, 5 mM CaCl2, 100 mM NaCl, 0,1% (v/v) Triton X-100].
The eluted MMP-9 includes the three characterized forms of the enzyme: monomer, homodimer, and heterodimer (complex with lipokalin). The purity of MMP-9 was estimated to be ca. 90%, with the remaining contaminating protein being fibronectin and small amounts of TIMPS.
The latent MMP-9 was activated by a 30-60 min incubation at 37° C. with 1/100 vol trypsin (10 mg ml^−1). The trypsin was subsequently inactivated by addition of the serine proteinase inhibitor phenlymethylsulfonylfluoride (PMSF) or the more specific trypsin inhibitor TLCK.
The enzymatic cleavage of commercially available synthetic internally quenched fluorigenic peptide substrates such as 7-methylcoumarin-4-yl-acetyl-prolyleucyl-glycyl-leucyl-(dinitrophenyl-L-α,β-diaminopropionyl)-alanyl-arginylamide (Mca-Pro-Leu-Gly-Leu-Dap(Dnp)-Ala-Arg-NH2) at the scissile -Gly-Leu-peptide bond separates the fluorescent Mca group from the dinitrophenol quencher, resulting in a strong linear increase in fluorescence intensity that can be readily measured in a fluorimeter (λexitation328 nm, λemission 393 nm) over the first few minutes of the reaction. The specificity of the assay for matrix metalloproteinases is provided by the type I collagen-derived sequence -Pro-Leu-Gly-Leu- in the synthetic substrate, as well as by the incubation conditions. To test the efficacy of the synthetic collagenase/MMP inhibitors, the residual enzymatic activity remaining after an incubation of enzyme plus different amounts of inhibitor is measured at a fixed enzyme and substrate concentration. For each inhibitor, three test series at different fixed substrate concentrations were carried out. From the time-dependent increase in fluorescence intensity measured, the velocity (v) of the enzymatic activity can be calculated as increase in arbitrary fluorescence intensity units per minute. The inhibition constant Ki is calculated graphically by the method of Dixon (1953) by plotting the reciprocal of the reaction velocity 1/v on the ordinate, and the inhibitor concentration on the abscissa. The x-intercept of the linear plot is defined as minus K1 value.
1984 μl assay buffer (100 mM Tris-HCl pH 7,5, 100 mM NaCl, 10 mM CaCl2, 0,05% Brij 35) • 2 μl inhibitor dissolved in DMSO, or DMSO alone as a solvent control • 4 μl enzyme (MMP-2, MMP-9, or the catalytic domain of MMP-8) • 10 μl Mca-Pro-Leu-Gly-Leu-Dap(Dnp)-Ala-Arg-NH2 in DMSO Method • 1. Incubate buffer, enzyme, and inhibitor for 5 min at room temperature, with stirring. • 2. Start the reaction by adding 10 μl substrate in DMSO • 3. Record the increase in fluorescence intensity over 2 min. […]
On to `CC(S)CCn1c(=O)[nH]c(=O)c2ccccc21` (racemic) [Example 3, (R,S)-1-(3-mercaptobut-1-yl)-chinazolin-2,4(1H,3H)-dione], for which the “MMP-9 (50% inhibition)” value is “negative”.

Staying with this assay, now noted: trypsin-activated native MMP-9 from human buffy coat; read-out: MMP-9 (50% inhibition).
On to `CC(CCS)n1c(=O)[nH]c2ccccc2c1=O` (racemic) [Example 18, (R,S)-3-[3-(1-methyl)-mercaptopropyl]-chinazolin-2,4(1H,3H)-dione], for which the pIC50 was 5.00.

For the compound `O=c1[nH]c(=O)n(CCCS)c2ccccc12` [Example 4, 1-(3-mercaptopropyl)-chinazolin-2,4(1H,3H)-dione], the pIC50 is 5.22.

For `O=c1[nH]c(=O)n(CCS)c2ccccc12` [Example 5, 1-(2-mercaptoethyl)-chinazolin-2,4(1H,3H)-dione], the pIC50 is 4.90.

As to `Cn1c(=O)c2ccccc2n(CCCS)c1=O` [Example 7, 1-(3-mercaptoprop-1-yl)-3-methyl-chinazolin-2,4(1H,3H)-dione], the pIC50 was 4.15.

As for `O=c1[nH]c2ccccc2c(=O)n1CCCCS` [Example 12, 3-(4-mercaptobut-1-yl)-chinazolin-2,4(1H,3H)-dione], the pIC50 is 4.70.

As for `Cn1c(=O)c2sccc2n(CCCS)c1=O` [Example 14, 1-(3-mercaptoprop-1-yl)-3-methyl-thieno(3,2-d)-pyrimidin-2,4(1H,3H)-dione], the pIC50 is 4.30.

As for `Cn1c(=O)c2sccc2n(CCS)c1=O` [Example 17, 1-(2-mercaptoethyl)-3-methyl-thieno[3,2-d]-pyrimidine-2,4(1H,3H)-dione], the pIC50 is 5.00.
